What was measured:
[1] = target: T1, PRP4 (Homo sapiens, UniProt Q13523); experiment: KINOMEscan; assay type: binding; conditions: PRP4, 1 uM
T1 construct: purchased Ambit KINOMEscan (DiscoverX)

[2] = target: T2, MAPKAPK2 (Homo sapiens, UniProt P49137); experiment: KINOMEscan; assay type: binding; conditions: MAPKAPK2, 1 uM
T2 construct: purchased Ambit KINOMEscan (DiscoverX)

[3] = target: T3, CAMK2A (Homo sapiens, UniProt Q9UQM7); experiment: KINOMEscan; assay type: binding; conditions: 1 uM
T3 construct: purchased Ambit KINOMEscan (DiscoverX)
How it was run: (§1)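 Test concentration 1 μM for all compounds. Values reflect interference with substrate binding, not catalytic turnover.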

[4] = target: T4, MINK (Homo sapiens, UniProt Q8N4C8); experiment: KINOMEscan; assay type: binding; conditions: 1 uM
T4 construct: purchased Ambit KINOMEscan (DiscoverX)
How it was run: as §1

[5] = target: T5, NEK1 (Homo sapiens, UniProt Q96PY6); experiment: KINOMEscan; assay type: binding; conditions: for % binding compared to no inhibitor control: NEK1, 1 uM
T5 construct: purchased Ambit KINOMEscan (DiscoverX)
T5 sequence (Q96PY6 1-1258): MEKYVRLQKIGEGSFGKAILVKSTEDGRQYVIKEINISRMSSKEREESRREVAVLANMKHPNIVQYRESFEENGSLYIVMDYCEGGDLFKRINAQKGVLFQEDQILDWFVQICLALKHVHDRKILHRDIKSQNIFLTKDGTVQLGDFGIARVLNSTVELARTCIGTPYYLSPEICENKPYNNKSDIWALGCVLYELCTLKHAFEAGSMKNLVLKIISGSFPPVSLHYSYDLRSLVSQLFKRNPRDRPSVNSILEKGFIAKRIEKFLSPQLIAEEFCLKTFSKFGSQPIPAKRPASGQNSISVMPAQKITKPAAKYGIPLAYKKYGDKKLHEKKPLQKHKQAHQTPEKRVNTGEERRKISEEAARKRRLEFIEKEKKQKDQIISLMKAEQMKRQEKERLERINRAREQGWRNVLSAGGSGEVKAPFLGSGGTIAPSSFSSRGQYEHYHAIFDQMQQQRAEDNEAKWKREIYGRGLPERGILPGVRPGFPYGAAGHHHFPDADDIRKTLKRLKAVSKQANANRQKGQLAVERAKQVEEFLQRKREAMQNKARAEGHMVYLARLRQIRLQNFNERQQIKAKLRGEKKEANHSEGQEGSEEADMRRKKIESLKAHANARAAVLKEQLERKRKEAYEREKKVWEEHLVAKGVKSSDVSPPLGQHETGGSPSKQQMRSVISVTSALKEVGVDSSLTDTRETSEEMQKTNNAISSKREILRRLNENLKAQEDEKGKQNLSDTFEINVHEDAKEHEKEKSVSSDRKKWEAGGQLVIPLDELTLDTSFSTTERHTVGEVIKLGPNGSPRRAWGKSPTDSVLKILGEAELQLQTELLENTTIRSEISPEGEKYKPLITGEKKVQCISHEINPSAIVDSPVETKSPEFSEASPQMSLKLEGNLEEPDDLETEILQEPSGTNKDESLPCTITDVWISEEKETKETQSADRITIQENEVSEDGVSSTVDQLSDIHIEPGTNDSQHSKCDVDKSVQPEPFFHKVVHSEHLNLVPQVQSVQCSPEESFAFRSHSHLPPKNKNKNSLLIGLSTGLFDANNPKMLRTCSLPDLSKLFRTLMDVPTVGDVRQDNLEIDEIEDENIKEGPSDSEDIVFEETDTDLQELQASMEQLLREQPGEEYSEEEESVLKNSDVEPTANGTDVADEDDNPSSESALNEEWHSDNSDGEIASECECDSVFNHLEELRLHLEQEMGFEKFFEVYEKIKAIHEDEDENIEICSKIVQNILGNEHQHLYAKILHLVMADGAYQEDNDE
How it was run: as §1

[6] = target: T6, CAMK1G (Homo sapiens, UniProt Q96NX5); experiment: KINOMEscan; assay type: binding; conditions: 1 uM
T6 construct: purchased Ambit KINOMEscan (DiscoverX)
How it was run: as §1

[7] = test system: panel of 402 kinases; experiment: KINOMEscan panel; assay type: binding; conditions: 1 μM
Protocol: First, we used Ambit's KINOMEscan™ technology to identify those kinases that are inhibited for substrate binding by the compounds, all assayed at 1 μM. Second, we used Invitrogen's SelectScreen® Biochemical Kinase Profiling Service to determine the in vitro IC50s for the compounds against specific kinases.

[8] = test system: HCT-116 (K-RAS^G13D/+); experiment: Cell viability (Syto60); assay type: cell-based
Protocol: (§2) All colon cancer cell lines were maintained in DMEM supplemented with penicillin (100 units/mL), streptomycin (100 μg/mL), and 10% fetal bovine serum (FBS). The rectal cancer cell line (Car1) was maintained in DMEM/F12 supplemented with penicillin (100 units/mL)/streptomycin (50 μg/mL), and 5% FBS. […] The target sequences for knockdowns can be found in Table S2. In drug treatment experiments, cells were plated for 24 hours prior to exposure to drug. AZ-628 was obtained from AstraZeneca. CI-1040 was obtained from Pfizer. R406 was synthesized in the Gray laboratory. BAY61-3606 and IKK VII were purchased from EMD Biosciences. BAY derivatives were synthesized for this study.
(§3) Cell cycle analysis was performed via FACS-based propidium iodide quantification, using standard methods. To measure cell viability, cells were grown in 96-well plates in the presence or absence of drug for 72 hours, fixed with 4% paraformaldehyde, and then stained with Syto60 (Invitrogen). Plates were imaged and quantified using the LiCor Odyssey system (LiCor).

[9] = test system: colorectal cancer cells expressing mutant B-RAF (V600E) (HT-29, RKO); experiment: Cell viability (Syto60); assay type: cell-based; conditions: HT-29 and RKO, 72 hours
Protocol: as §2, §3

[10] = target: T7, EGFR(L747-S752del, P753S) (Homo sapiens, UniProt P00533, DEL747-752/P753S); experiment: KINOMEscan; assay type: binding; conditions: 1 uM
T7 construct: purchased Ambit KINOMEscan (DiscoverX)
How it was run: as §1

[11] = target: T8, LRRK2(G2019S) (Homo sapiens, UniProt Q5S007, G2019S); experiment: KINOMEscan; assay type: binding; conditions: 1 uM
T8 construct: purchased Ambit KINOMEscan (DiscoverX)
How it was run: as §1

[12] = target: T9, RPS6KA3(Kin.Dom.1-N-terminal) (Homo sapiens, UniProt P51812); experiment: KINOMEscan; assay type: binding; conditions: 1 uM
T9 construct: RPS6KA3(Kin.Dom.1-N-terminal); purchased Ambit KINOMEscan (DiscoverX)
How it was run: as §1

[13] = target: T10, CDK4-cyclinD1 (Homo sapiens, UniProt P11802); experiment: KINOMEscan; assay type: binding; conditions: CDK4-cyclinD1, 1 uM
T10 construct: purchased Ambit KINOMEscan (DiscoverX)
How it was run: as §1

[14] = target: T11, PRKCI (Homo sapiens, UniProt P41743); experiment: KINOMEscan; assay type: binding; conditions: 1 uM
T11 construct: purchased Ambit KINOMEscan (DiscoverX)
How it was run: as §1

[15] = target: T12, KIT(D816H) (Homo sapiens, UniProt P10721, D816H); experiment: KINOMEscan; assay type: binding; conditions: 1 uM
T12 construct: purchased Ambit KINOMEscan (DiscoverX)
How it was run: as §1

[16] = target: T13, FLT3(D835Y) (Homo sapiens, UniProt P36888, D835Y); experiment: KINOMEscan; assay type: binding; conditions: 1 uM
T13 construct: purchased Ambit KINOMEscan (DiscoverX)
How it was run: as §1

T2 sequence (P49137 whole entry): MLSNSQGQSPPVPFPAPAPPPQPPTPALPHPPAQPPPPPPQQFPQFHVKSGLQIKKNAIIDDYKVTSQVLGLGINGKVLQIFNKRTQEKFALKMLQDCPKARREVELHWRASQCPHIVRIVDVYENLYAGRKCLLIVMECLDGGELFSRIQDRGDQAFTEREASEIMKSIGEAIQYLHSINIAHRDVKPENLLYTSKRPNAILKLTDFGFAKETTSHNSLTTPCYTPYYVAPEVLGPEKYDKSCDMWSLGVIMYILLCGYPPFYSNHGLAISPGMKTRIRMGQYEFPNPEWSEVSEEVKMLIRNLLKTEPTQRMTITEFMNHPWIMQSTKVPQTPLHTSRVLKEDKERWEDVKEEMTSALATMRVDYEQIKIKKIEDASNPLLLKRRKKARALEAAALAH
T1 sequence (Q13523 whole entry): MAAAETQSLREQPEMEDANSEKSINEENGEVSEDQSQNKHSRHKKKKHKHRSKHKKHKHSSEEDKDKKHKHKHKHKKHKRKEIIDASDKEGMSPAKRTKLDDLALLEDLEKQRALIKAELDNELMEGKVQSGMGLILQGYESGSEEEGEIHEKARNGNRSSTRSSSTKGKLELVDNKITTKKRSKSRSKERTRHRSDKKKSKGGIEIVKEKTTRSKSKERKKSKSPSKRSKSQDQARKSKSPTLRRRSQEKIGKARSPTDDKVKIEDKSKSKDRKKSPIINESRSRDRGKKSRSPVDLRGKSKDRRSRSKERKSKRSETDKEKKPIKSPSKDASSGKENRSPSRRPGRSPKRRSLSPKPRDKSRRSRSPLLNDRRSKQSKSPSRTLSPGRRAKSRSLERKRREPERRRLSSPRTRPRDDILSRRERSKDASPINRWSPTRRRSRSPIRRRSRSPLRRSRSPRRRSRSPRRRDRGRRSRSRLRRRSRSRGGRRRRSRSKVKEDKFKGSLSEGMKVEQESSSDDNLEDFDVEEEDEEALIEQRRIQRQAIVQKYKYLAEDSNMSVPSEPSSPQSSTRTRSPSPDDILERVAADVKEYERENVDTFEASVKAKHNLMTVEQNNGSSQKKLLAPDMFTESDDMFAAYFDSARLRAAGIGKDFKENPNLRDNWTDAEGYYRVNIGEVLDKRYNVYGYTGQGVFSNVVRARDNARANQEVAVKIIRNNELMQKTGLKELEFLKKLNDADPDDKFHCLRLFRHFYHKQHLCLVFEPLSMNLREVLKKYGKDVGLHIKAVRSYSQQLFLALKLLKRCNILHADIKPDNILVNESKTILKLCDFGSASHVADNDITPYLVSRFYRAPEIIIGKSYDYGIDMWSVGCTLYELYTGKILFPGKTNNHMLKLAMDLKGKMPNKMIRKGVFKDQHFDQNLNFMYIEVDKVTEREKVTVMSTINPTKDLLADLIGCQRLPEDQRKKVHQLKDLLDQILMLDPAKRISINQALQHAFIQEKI
T6 sequence (Q96NX5 whole entry): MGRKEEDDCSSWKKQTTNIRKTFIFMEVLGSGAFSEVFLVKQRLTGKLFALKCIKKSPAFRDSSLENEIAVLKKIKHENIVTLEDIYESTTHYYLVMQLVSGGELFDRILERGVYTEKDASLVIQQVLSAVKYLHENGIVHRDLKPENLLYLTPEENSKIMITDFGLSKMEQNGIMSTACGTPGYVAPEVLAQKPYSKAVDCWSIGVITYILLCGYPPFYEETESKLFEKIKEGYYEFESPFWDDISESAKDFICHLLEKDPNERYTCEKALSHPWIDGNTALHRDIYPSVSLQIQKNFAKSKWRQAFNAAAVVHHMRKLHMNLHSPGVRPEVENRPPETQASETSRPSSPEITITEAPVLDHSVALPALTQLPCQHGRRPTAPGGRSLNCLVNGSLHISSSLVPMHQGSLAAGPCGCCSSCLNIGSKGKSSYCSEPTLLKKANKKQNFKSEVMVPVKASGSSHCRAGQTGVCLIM
T3 sequence (Q9UQM7 whole entry): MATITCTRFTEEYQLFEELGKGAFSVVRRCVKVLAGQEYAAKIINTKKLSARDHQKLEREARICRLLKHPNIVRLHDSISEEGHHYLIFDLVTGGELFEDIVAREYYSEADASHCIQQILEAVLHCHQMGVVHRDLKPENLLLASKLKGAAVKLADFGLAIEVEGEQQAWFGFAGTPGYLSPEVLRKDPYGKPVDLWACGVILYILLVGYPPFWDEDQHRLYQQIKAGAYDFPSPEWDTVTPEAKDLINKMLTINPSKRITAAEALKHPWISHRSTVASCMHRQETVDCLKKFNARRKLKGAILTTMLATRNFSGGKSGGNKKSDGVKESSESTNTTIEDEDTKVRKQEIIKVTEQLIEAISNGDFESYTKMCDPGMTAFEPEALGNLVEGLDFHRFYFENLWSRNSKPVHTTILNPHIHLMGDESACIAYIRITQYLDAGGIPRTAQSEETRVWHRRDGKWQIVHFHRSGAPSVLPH
T4 sequence (Q8N4C8 whole entry): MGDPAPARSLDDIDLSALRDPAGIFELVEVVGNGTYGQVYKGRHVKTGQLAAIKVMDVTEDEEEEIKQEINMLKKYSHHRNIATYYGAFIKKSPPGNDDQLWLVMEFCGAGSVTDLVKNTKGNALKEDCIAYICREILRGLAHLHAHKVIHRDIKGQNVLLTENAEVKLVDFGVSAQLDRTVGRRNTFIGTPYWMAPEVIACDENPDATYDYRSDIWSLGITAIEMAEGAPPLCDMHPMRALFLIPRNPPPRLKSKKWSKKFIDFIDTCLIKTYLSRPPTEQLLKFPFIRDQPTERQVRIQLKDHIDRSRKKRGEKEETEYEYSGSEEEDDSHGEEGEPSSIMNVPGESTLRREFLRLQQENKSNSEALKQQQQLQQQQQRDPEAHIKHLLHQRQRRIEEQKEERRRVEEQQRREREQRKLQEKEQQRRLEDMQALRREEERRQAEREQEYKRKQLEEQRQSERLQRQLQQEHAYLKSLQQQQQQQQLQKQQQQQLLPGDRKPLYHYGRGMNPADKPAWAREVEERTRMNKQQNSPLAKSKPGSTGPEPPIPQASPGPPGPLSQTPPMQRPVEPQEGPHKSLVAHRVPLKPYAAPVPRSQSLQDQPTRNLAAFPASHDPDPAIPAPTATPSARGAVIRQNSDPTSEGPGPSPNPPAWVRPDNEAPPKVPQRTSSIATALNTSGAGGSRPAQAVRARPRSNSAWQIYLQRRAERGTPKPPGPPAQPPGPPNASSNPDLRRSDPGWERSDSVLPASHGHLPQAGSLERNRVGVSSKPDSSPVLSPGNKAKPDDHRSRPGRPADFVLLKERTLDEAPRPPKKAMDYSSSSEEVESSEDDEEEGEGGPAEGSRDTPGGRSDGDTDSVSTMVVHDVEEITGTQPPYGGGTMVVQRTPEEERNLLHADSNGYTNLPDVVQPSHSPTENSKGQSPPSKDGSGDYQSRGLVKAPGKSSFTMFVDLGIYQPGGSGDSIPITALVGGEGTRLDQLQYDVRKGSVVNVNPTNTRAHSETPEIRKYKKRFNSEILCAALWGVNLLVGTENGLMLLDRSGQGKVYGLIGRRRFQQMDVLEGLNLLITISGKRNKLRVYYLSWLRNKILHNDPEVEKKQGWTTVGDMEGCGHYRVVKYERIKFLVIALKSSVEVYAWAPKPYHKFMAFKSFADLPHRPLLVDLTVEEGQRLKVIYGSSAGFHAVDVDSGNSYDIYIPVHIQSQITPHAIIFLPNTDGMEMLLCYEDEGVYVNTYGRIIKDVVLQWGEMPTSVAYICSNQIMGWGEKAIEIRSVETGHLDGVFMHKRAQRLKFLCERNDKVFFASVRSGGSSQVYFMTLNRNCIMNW
T9 sequence (P51812 1-397 limits assumed): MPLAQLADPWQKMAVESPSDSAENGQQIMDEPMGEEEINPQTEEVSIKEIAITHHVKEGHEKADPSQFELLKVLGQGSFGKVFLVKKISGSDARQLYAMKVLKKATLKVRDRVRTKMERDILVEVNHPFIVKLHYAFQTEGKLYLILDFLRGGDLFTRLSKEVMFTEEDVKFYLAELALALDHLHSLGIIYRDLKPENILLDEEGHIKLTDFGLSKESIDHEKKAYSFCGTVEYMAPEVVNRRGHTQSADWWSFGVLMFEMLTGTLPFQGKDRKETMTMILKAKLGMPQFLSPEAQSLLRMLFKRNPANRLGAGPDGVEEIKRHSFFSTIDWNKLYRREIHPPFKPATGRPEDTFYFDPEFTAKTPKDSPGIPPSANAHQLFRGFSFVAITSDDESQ
T12 sequence (P10721 26-976 D816H): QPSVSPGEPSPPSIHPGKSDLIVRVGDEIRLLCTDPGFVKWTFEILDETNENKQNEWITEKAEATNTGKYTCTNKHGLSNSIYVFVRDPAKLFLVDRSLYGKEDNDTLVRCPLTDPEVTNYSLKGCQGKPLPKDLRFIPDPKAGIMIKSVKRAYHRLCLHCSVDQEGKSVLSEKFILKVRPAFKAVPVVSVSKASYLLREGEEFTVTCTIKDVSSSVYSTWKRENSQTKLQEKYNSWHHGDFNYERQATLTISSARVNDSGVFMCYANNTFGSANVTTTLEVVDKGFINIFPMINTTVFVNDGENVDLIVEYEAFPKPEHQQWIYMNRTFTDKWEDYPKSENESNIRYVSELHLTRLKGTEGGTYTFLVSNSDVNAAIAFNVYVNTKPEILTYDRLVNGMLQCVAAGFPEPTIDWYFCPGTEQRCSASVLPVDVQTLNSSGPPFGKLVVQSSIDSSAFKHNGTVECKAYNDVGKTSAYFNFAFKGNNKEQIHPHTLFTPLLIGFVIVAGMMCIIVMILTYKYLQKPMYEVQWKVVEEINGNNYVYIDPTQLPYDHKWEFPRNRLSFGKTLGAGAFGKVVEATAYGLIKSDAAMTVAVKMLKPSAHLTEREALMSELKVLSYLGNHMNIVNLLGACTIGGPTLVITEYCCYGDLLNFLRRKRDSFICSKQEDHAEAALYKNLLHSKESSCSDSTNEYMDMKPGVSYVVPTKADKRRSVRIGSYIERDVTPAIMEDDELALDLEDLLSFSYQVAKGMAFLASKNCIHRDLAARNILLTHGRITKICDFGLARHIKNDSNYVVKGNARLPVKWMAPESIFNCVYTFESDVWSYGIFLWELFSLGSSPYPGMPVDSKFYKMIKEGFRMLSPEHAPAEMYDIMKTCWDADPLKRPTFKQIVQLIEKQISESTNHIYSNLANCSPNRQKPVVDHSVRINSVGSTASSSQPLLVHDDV

COc1ccc(-c2cc3nccn3c(Nc3ncccc3C(N)=O)n2)cc1OC.Cl.Cl [BAY61-3606, 2-[7-(3,4-dimethoxyphenyl)-imidazo [1,2-c]pyrimidin-5-ylamino] nicotinamide dihydrochloride, reference compound]
% binding compared to no inhibitor control [1]: 77% | % binding compared to no inhibitor control [2]: 100% | % binding compared to no inhibitor control [3]: 64% | % binding compared to no inhibitor control [4]: 62% | % binding compared to no inhibitor control [5]: 27% | % inhibition ATP binding ([5]; NEK1, KINOMEscan, 1 μM): 73% | % binding compared to no inhibitor control [6]: 82% | number of kinases with binding inhibited by greater than 90% ([7]; panel of 402 kinases): 15 kinases | sensitivity of cells expressing mutant K-RAS (cell viability) ([8]; 72 hours, HCT-116 compared to HKe-3, normalized to DMSO): relatively sensitive | cooperation with AZ-628 (cell viability) ([8]; HCT-116, 72 hours, 1 µM AZ-628): did not cooperate | cell viability, combination of BAY61-3606 and CI-1040 [9]: cooperated to produce an enhanced response | sensitivity of cells expressing mutant B-RAF (cell viability) ([9]; single agent): sensitive

COc1ccccc1Nc1nc(-c2ccc(OC)c(OC)c2)cc2nccn12 [BAY derivative 6]
% binding compared to no inhibitor control [1]: 100% | % binding compared to no inhibitor control [2]: 93% | % binding compared to no inhibitor control [10]: 76% | % binding compared to no inhibitor control [11]: 92% | % binding compared to no inhibitor control [12]: 96% | % binding compared to no inhibitor control [13]: 100% | % binding compared to no inhibitor control [14]: 100% | % binding compared to no inhibitor control [3]: 96% | % binding compared to no inhibitor control [4]: 100% | % binding compared to no inhibitor control [15]: 61% | % binding compared to no inhibitor control [16]: 50% | % binding compared to no inhibitor control [5]: 91% | % binding compared to no inhibitor control [6]: 98% | ability to competitively inhibit active site (ATP) binding across the kinase panel [7]: failed to effectively inhibit ATP binding by the majority of kinases

Reference: publication PMC3399817 (PLoS ONE, 2012)
